From ChEMBL document CHEMBL1201862, “PubChem BioAssay data set” (2004)
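Assay format: 96-well plates, 48-hour exposure. At the GI50, growth is halved.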 Active and inactive are the calls of the source. Rule as the data show it: active = GI50 up to about 1.1 µM and inactive = higher.

Legend:
Assay in all cases: growth of human tumour cells (NCI), 48 h
BT-549 = test system: BT-549
COLO 205 = test system: COLO 205
EKVX = test system: EKVX
HOP-92 = test system: HOP-92
K562 = test system: K562
KM12 = test system: KM12
M14 = test system: M14
NCI-H23 = test system: NCI-H23
OVCAR-4 = test system: OVCAR-4
OVCAR-5 = test system: OVCAR-5
PC-3 = test system: PC-3
RXF 393 = test system: RXF 393
SF-268 = test system: SF-268
SF-539 = test system: SF-539
SK-MEL-2 = test system: SK-MEL-2
SNB-19 = test system: SNB-19
SNB-75 = test system: SNB-75
UACC-257 = test system: UACC-257
UO-31 = test system: UO-31
RPMI-8226 = test system: RPMI-8226

Measured: GI50

N#CC1C(=O)NC2=C(CCOc3c2ccc2ccccc32)C1c1ccc(F)cc1 (configuration not stated)
inactive: BT-549 60 µM | COLO 205 61 µM | EKVX 36 µM | HOP-92 7.46 µM | K562 > 100 µM | KM12 67.5 µM | M14 26.1 µM | NCI-H23 23.4 µM | OVCAR-4 31.8 µM | OVCAR-5 23.5 µM | PC-3 19.3 µM | RXF 393 15 µM | SF-268 22.4 µM | SF-539 44.8 µM | SK-MEL-2 29.8 µM | SNB-19 20 µM | SNB-75 20.2 µM | UACC-257 > 100 µM | UO-31 12.1 µM

CCCCCCCCCCCCN1[C@H]2CCC[C@H]2C(O)[C@@H]2CCC[C@@H]21 (some centres not stated)
inactive: BT-549 42.3 µM | COLO 205 > 100 µM | HOP-92 > 100 µM | K562 > 100 µM | KM12 68.2 µM | M14 > 100 µM | NCI-H23 42.6 µM | OVCAR-4 > 100 µM | OVCAR-5 > 100 µM | PC-3 88.5 µM | RPMI-8226 > 100 µM | RXF 393 > 100 µM | SF-268 > 100 µM | SK-MEL-2 > 100 µM | SNB-19 > 100 µM | SNB-75 > 100 µM | UACC-257 > 100 µM

O=c1c2ccccc2nc(Cc2nc(-c3ccc(Cl)cc3)cs2)n1-c1ccc(Cl)cc1
inactive: BT-549 82.2 µM | COLO 205 49.5 µM | EKVX 64.6 µM | HOP-92 9.64 µM | K562 5.01 µM | KM12 41.8 µM | M14 > 100 µM | NCI-H23 56.8 µM | OVCAR-4 76.2 µM | OVCAR-5 27.1 µM | PC-3 48 µM | RPMI-8226 23.8 µM | RXF 393 > 100 µM | SF-268 62.4 µM | SK-MEL-2 28.1 µM | SNB-19 > 100 µM | SNB-75 79.6 µM | UACC-257 67.6 µM | UO-31 > 100 µM

CC(NC(=O)C(OC(=O)C(C)NC(=O)OC(C)(C)C)C(C)C)C(=O)OC(C(=O)O)C(C)C (configuration not stated)
inactive: BT-549 > 100 µM | COLO 205 > 100 µM | EKVX > 100 µM | HOP-92 > 100 µM | K562 > 100 µM | KM12 > 100 µM | M14 > 100 µM | OVCAR-5 > 100 µM | PC-3 > 100 µM | RPMI-8226 > 100 µM | RXF 393 > 100 µM | SF-268 > 100 µM | SF-539 > 100 µM | SK-MEL-2 > 100 µM | SNB-19 > 100 µM | SNB-75 > 100 µM | UACC-257 > 100 µM | UO-31 > 100 µM

C[C@@H]1CC(=O)C[C@@H]2CC[C@H]3[C@@H]4CC[C@H](OC(=O)c5cccc6cc7ccccc7nc56)[C@H]4CC[C@@H]3[C@H]21
inactive: BT-549 26.1 µM | COLO 205 22.2 µM | EKVX 16.7 µM | HOP-92 23.3 µM | K562 8 µM | KM12 14.3 µM | M14 15.5 µM | NCI-H23 14.7 µM | OVCAR-4 13.6 µM | OVCAR-5 18.8 µM | PC-3 12.1 µM | RXF 393 18.1 µM | SF-268 6.4 µM | SF-539 16.7 µM | SK-MEL-2 17.1 µM | SNB-19 17.7 µM | SNB-75 15.6 µM | UACC-257 14.3 µM | UO-31 16.9 µM

Cc1c(NC(=S)N/N=C\C(=N/NC(=S)Nc2c(C)n(C)n(-c3ccccc3)c2=O)c2ccccc2)c(=O)n(-c2ccccc2)n1C
inactive: BT-549 > 100 µM | COLO 205 > 100 µM | EKVX > 100 µM | HOP-92 > 100 µM | KM12 > 100 µM | M14 > 100 µM | NCI-H23 > 100 µM | OVCAR-4 > 100 µM | OVCAR-5 > 100 µM | PC-3 > 100 µM | RXF 393 > 100 µM | SF-268 > 100 µM | SF-539 > 100 µM | SK-MEL-2 > 100 µM | SNB-19 > 100 µM | SNB-75 > 100 µM | UACC-257 > 100 µM | UO-31 > 100 µM

C[C@H]1[C@H]2[C@H]3CC[C@@H]4[C@@]5(C)CC[C@H](O)C(C)(C)[C@@H]5CC[C@@]4(C)[C@]3(C)C[C@H](O)[C@@]2(C)C[C@H]2O[C@]21C
inactive: BT-549 20.4 µM | COLO 205 24 µM | EKVX 24.2 µM | HOP-92 17.7 µM | KM12 19.8 µM | M14 25.5 µM | NCI-H23 18.2 µM | OVCAR-4 25.1 µM | OVCAR-5 24.6 µM | PC-3 13.7 µM | RPMI-8226 19.4 µM | RXF 393 16.7 µM | SF-268 18 µM | SF-539 18.8 µM | SK-MEL-2 19 µM | SNB-19 20.6 µM | UACC-257 16.8 µM
